# Measurements as given in ChEMBL document CHEMBL1201862, “PubChem BioAssay data set” (2004).
# Active and inactive are the calls of the source.
# Assays:
# [1] = target: Beta-2 adrenergic receptor (Homo sapiens, UniProt P07550); experiment: ADRB2 activation measured by internalization – cell-based, FAP fluorogen, flow cytometry, cherry pick 1, dose response (AID 588763); assay type: functional
# Cytochrome P450 3A4 = Cytochrome P450 3A4 (Homo sapiens, UniProt P08684);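 note: CYP3A4 tested as one member of a cytochrome P450 panel screen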
# Chain of Cytochrome P450 3A4 (P08684 whole entry): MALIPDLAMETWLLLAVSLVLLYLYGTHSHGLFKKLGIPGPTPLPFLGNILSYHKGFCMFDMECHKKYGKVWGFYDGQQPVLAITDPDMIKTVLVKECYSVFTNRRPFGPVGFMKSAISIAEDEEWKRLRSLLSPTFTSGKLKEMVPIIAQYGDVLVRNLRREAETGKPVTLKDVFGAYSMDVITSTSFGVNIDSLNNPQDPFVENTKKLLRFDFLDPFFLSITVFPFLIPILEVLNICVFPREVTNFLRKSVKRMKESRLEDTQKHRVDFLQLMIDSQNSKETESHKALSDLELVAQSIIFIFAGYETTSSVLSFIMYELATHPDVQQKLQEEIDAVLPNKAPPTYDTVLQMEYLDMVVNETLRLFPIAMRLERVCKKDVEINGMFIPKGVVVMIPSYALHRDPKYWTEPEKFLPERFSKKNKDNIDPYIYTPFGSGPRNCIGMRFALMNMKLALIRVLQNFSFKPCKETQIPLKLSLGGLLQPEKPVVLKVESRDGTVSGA
# Cytochrome P450 2C19 = Cytochrome P450 2C19 (Homo sapiens, UniProt P33261); experiment: Cytochrome panel assay with activity outcomes. Panel member name: p450-cyp2c19 Compounds with AC50 equal or less than 10 uM are considered active; assay type: functional; details: read-out: AC50
# Cytochrome P450 2D6 = Cytochrome P450 2D6 (Homo sapiens, UniProt P10635);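 note: CYP2D6 member of a cytochrome P450 panel assay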
# Chain of Cytochrome P450 2D6 (P10635 whole entry): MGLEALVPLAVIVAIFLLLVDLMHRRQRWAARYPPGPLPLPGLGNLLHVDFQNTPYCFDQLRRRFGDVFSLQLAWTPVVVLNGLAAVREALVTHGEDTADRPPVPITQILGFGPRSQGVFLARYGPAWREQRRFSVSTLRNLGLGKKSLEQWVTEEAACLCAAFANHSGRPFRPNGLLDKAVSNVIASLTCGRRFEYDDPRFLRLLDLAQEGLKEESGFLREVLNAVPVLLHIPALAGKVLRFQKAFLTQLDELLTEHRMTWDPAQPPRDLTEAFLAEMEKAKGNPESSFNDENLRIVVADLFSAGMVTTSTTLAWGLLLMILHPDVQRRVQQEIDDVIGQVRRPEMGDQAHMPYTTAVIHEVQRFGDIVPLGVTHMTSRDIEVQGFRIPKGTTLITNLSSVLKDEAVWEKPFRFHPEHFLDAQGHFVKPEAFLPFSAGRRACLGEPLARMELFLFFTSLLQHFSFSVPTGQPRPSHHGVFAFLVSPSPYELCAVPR
# Ephrin type-A receptor 4 = Ephrin type-A receptor 4 (Mus musculus, UniProt Q03137); experiment: EphA4 ligand-binding antagonists – biochemical, colorimetric, mouse EphA4, primary screen (AID 689); assay type: functional
# [2] = target: Peroxisome proliferator-activated receptor gamma/Nuclear receptor coactivator 1 (Homo sapiens, UniProt P37231); experiment: TR-FRET dose response biochemical High Throughput Screening assay for agonists of the steroid receptor coactivator 1 (SRC-1) recruitment by the peroxisome proliferator-activated receptor gamma (PPAR gamma): non-selective agonists. [Related pubchem assays (depositor defined):AID1300, AID1808, AID504735, AID631]; assay type: protein assay
# [3] = target: Peroxisome proliferator-activated receptor gamma/Nuclear receptor coactivator 2 (Homo sapiens, UniProt P37231); experiment: TR-FRET dose response biochemical High Throughput Screening assay for agonists of the steroid receptor coactivator 2 (SRC-2) recruitment by the peroxisome proliferator-activated receptor gamma (PPAR gamma): non-selective agonists. [Related pubchem assays: 1297, 1032 ]; assay type: functional
# [4] = target: Peroxisome proliferator-activated receptor gamma/Nuclear receptor coactivator 3 (Homo sapiens, UniProt P37231); experiment: TR-FRET dose response biochemical High Throughput Screening assay for agonists of the steroid receptor coactivator 3 (SRC-3) recruitment by the peroxisome proliferator-activated receptor gamma (PPAR gamma): non-selective agonists. [Related pubchem assays: 1301 (Confirmation screen.), 1048 (Primary screen.)]; assay type: functional
# [5] = target: T1, Heat shock factor protein 1 (Mus musculus, UniProt P38532); experiment: enhancement of HSF1-driven luciferase signal – cell-based, NIH3T3, luminescence, dose retest, confirmation (AID 435004); assay type: functional;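 note: stress induced by proteasome inhibitor MG132 added 30 min after compound; luciferase reporter driven by HSF1 response element in NIH3T3 cells; actives raise luminescence as potentiators of the MG132 stress response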
# T1 sequence (P38532 whole entry): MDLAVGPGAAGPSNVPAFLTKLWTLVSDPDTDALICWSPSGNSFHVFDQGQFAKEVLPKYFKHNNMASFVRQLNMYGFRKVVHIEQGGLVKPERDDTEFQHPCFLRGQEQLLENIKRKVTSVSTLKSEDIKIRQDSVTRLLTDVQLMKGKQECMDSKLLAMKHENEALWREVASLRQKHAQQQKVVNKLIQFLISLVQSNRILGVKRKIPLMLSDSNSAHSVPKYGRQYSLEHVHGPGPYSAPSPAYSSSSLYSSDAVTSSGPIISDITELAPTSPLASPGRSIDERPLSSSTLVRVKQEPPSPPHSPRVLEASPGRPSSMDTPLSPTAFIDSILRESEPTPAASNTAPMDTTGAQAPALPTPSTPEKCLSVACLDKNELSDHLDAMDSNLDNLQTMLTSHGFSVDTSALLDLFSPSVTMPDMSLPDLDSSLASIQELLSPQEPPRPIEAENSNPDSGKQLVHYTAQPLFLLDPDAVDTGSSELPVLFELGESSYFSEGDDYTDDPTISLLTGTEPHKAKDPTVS
# Escherichia coli [6] = experiment: microbe, parasite or virus in culture
# Escherichia coli [7] = experiment: microbe, parasite or virus in culture; remark: listed apart in the source
# CAAX prenyl protease 2 = CAAX prenyl protease 2 (Homo sapiens, UniProt Q9Y256); experiment: inhibition of Ras-converting CAAX protease Rce1 – biochemical, yeast membranes, quenched-peptide fluorescence, cherry-pick, dose response (AID 588849)
# Chain of CAAX prenyl protease 2 (Q9Y256 whole entry): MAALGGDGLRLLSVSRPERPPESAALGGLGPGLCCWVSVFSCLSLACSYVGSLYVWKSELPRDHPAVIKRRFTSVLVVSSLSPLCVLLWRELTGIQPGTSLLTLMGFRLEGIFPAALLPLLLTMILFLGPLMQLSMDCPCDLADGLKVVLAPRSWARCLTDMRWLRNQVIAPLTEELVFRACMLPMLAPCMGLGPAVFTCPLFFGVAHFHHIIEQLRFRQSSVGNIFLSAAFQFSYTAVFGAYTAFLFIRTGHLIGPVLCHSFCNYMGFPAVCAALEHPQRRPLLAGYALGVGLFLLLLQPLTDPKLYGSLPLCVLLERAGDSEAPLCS
# Trypsin = Trypsin (Sus scrofa, UniProt P00761); experiment: trypsin protease activity blockade – biochemical, quenched peptide fluorescence, cherry-pick, selectivity assay for Rce1 protease inhibitor project, dose response (AID 488789)
# Chain of Trypsin (P00761 whole entry): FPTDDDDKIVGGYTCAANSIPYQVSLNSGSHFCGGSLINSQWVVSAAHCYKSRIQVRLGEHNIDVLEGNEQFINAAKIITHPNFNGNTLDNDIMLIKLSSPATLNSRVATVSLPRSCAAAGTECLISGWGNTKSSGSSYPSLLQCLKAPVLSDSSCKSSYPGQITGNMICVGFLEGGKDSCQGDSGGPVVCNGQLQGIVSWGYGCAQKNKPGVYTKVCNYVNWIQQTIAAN
# Tumor necrosis factor = Tumor necrosis factor (Homo sapiens, UniProt P01375); experiment: analog potency on TNFa NF-kB signaling – cell-based, revised, SAR follow-up (AID 2337); assay type: functional
# HEK293 = experiment: cells; details: Homo sapiens;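 note: cells exposed to compound for 14 hours overnight before viability readout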
# [8] = target: Dual specificity tyrosine-phosphorylation-regulated kinase 1A (Rattus norvegicus, UniProt Q63470); assay type: biochemical, Homo sapiens
# [9] = target: T2, Sentrin-specific protease 6 (Homo sapiens, UniProt Q9GZR1); experiment: SAR Analysis of small molecule inhibitors of Sentrin-specific protease 6 (SENP6) using a Luminescent assay. [Related pubchem assays (depositor defined):AID2582, AID2599]; assay type: functional
# T2 sequence (Q9GZR1 whole entry): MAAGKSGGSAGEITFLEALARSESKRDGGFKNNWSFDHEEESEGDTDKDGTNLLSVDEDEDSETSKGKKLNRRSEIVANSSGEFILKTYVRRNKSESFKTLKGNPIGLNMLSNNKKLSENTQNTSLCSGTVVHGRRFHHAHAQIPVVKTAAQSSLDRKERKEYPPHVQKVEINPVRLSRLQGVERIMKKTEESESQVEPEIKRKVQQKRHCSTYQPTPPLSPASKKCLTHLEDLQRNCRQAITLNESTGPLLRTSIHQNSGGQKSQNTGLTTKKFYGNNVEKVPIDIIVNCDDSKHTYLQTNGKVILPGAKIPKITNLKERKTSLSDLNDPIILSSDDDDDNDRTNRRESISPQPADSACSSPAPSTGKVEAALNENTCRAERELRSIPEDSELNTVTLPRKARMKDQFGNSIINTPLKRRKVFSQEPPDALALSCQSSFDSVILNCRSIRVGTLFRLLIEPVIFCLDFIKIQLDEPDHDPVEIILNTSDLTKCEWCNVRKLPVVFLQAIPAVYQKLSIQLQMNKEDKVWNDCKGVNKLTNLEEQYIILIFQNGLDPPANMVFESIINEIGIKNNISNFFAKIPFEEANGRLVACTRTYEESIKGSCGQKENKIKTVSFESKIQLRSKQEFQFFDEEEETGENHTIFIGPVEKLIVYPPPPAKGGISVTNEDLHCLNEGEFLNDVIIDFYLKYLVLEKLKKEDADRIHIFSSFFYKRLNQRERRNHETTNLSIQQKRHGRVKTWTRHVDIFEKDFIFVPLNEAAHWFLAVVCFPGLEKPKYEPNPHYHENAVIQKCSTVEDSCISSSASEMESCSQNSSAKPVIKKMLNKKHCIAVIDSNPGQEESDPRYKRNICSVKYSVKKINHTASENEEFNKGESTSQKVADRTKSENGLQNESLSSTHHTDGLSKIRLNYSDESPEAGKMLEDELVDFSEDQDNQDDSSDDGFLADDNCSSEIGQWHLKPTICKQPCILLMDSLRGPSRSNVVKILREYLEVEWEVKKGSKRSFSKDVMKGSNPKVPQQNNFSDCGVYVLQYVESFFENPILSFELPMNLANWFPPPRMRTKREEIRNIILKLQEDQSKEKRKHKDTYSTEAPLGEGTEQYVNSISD
# [10] = target: T3, Sentrin-specific protease 8 (Homo sapiens, UniProt Q96LD8); experiment: inhibition of human SENP8 cleavage activity – biochemical, luminescence, SAR follow-up (AID 504501); assay type: functional
# T3 sequence (Q96LD8 whole entry): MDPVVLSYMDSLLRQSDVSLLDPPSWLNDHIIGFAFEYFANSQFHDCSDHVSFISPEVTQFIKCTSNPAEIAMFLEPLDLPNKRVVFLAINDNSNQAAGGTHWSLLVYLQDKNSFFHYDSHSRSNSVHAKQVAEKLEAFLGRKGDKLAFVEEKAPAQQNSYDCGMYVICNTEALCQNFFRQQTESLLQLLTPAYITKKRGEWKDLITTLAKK
# [11] = target: T4, Sentrin-specific protease 7 (Homo sapiens, UniProt Q9BQF6); experiment: inhibition of human SENP7 cleavage activity – biochemical, luminescence, SAR follow-up (AID 504497); assay type: functional
# T4 sequence (Q9BQF6 whole entry): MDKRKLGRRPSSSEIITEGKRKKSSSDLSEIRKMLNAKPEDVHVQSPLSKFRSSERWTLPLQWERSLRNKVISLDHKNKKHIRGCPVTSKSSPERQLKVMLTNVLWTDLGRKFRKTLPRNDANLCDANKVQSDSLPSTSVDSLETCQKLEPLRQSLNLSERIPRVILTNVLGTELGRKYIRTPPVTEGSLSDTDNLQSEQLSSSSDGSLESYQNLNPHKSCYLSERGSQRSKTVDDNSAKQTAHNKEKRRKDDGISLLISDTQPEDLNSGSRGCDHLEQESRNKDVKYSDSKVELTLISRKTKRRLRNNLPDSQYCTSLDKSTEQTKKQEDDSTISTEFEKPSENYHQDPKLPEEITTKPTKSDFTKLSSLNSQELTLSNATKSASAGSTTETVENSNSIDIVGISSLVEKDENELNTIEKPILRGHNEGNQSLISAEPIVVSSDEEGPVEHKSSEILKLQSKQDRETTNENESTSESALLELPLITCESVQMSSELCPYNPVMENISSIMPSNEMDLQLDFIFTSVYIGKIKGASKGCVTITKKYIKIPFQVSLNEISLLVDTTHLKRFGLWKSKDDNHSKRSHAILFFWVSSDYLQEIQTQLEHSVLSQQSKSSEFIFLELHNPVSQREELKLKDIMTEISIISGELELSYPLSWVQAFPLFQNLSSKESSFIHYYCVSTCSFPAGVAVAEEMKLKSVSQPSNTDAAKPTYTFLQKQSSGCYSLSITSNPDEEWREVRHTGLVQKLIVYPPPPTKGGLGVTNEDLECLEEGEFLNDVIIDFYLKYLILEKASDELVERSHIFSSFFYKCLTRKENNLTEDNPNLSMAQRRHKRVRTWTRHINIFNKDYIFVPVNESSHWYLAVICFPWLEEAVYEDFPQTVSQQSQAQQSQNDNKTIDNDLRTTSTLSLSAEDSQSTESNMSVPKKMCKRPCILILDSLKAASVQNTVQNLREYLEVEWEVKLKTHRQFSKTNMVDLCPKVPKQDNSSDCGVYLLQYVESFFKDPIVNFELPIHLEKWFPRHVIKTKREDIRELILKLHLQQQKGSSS
# Caspase-3 = target: T5, Caspase-3 (Homo sapiens, UniProt P42574); experiment: SAR Analysis of small molecule inhibitors of Sentrin-specific proteases (SENPs) using a Caspase-3 Selectivity assay. [Related pubchem assays (depositor defined):AID2540, AID2599, AID434973, AID489001]; assay type: functional
# T5 sequence (P42574 whole entry): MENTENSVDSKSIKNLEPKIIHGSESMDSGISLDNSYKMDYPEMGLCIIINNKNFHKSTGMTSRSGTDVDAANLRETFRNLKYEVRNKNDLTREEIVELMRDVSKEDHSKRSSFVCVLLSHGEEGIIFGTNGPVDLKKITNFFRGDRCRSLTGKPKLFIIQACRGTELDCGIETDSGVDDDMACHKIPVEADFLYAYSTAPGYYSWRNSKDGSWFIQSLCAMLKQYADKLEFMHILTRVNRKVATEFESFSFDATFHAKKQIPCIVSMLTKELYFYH
# Exodeoxyribonuclease V = Exodeoxyribonuclease V (Escherichia coli (strain K12), UniProt P04993+P07648+P08394); experiment: RecBCD inhibition via phage-restricted bacterial growth – absorbance, V66 E. coli, mutant T4 phage, counter-screen for AddAB inhibitor project, dose response (AID 492957); assay type: functional, cell-based, Escherichia coli str. K-12 substr. MG1655
# Chain of Exodeoxyribonuclease V (P04993 whole entry): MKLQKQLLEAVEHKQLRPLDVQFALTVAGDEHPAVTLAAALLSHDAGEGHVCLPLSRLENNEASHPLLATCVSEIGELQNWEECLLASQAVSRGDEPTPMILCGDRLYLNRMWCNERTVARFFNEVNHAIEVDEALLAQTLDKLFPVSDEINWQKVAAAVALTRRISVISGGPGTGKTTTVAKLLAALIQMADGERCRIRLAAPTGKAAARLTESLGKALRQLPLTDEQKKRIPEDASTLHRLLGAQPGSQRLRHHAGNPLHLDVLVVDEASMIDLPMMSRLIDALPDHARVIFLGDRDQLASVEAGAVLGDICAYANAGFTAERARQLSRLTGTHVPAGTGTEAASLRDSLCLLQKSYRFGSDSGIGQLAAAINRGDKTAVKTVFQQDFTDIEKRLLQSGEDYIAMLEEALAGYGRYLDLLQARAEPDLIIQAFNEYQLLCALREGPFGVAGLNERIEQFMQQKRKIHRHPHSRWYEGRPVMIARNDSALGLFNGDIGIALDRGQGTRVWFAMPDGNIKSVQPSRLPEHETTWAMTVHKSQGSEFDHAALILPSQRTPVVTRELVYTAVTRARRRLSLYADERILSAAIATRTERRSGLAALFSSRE
# Chain of Exodeoxyribonuclease V (P07648 whole entry): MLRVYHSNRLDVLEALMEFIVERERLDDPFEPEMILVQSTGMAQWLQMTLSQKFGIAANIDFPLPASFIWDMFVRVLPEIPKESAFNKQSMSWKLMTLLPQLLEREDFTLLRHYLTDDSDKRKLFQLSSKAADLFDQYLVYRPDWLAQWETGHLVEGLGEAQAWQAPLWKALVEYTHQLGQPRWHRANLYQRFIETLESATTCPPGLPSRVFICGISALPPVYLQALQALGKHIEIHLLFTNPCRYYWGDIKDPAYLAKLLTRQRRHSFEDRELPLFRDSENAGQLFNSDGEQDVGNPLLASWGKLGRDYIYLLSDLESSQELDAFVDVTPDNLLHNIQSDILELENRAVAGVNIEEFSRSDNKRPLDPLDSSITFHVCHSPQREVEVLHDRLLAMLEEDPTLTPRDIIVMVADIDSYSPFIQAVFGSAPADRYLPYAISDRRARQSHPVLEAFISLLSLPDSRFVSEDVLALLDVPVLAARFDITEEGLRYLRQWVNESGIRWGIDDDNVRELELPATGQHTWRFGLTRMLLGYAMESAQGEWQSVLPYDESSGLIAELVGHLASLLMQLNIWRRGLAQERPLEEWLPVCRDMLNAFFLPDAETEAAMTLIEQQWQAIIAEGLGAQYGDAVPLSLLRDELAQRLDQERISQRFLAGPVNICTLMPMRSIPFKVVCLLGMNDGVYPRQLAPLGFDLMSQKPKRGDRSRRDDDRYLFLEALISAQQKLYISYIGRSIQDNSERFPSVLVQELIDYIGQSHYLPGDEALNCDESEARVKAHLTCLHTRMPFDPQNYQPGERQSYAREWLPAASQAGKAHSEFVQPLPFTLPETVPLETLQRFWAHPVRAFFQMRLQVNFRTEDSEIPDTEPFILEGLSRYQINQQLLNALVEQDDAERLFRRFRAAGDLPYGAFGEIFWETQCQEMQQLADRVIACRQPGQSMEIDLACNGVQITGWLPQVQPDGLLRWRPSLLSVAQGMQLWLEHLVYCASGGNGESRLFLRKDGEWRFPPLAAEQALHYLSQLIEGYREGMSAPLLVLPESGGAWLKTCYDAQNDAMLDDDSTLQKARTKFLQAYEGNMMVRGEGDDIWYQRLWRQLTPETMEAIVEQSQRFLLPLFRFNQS
# Chain of Exodeoxyribonuclease V (P08394 whole entry): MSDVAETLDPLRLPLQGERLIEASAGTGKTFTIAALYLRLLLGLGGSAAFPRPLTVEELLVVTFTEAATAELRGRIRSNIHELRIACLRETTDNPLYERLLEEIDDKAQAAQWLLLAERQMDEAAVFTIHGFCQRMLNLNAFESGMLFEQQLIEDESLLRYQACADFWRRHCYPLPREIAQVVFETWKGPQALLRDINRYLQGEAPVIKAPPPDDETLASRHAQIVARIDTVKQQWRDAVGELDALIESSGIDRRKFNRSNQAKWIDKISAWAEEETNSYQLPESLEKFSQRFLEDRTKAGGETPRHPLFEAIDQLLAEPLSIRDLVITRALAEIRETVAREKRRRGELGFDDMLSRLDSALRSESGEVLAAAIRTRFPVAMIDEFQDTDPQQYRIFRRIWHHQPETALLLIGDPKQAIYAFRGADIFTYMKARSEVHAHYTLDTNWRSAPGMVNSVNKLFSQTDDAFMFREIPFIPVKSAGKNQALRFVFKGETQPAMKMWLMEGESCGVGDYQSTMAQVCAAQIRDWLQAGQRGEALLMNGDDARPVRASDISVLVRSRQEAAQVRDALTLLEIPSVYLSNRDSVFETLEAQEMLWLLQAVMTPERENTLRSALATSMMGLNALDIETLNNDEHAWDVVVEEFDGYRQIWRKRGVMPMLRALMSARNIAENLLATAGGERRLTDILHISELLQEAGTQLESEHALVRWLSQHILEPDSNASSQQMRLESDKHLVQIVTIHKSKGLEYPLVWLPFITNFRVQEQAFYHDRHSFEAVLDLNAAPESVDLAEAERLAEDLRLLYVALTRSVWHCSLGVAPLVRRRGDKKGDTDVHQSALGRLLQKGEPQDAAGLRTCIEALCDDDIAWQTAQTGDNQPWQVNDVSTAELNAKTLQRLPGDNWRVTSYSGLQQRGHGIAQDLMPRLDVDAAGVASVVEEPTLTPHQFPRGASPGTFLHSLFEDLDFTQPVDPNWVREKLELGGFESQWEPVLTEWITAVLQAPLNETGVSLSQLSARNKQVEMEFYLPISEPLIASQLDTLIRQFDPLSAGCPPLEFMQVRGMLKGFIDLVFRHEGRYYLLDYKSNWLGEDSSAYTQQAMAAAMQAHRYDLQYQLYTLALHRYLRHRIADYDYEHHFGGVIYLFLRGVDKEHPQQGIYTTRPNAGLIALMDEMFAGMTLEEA
# [12] = Counterscreen for AddAB inhibitors: absorbance-based bacterial cell-based high throughput dose response assay for inhibitors of bacterial viability. [Related pubchem assays (depositor defined):AID435030, AID449728, AID449731, AID488942, AID488955, AID488956]; assay type: functional
# Chain of Beta-2 adrenergic receptor (P07550 whole entry): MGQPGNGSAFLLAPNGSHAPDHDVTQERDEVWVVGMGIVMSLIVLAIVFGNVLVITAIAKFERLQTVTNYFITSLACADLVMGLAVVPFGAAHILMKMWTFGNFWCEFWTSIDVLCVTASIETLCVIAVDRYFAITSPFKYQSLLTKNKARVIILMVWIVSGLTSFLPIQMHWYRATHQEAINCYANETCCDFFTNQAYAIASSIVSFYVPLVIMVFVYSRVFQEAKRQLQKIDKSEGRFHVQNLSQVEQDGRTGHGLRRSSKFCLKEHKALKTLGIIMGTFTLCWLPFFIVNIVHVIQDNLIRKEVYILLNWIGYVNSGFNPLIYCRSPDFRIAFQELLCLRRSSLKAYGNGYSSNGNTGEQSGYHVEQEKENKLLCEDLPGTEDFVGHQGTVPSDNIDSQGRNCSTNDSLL
structure (smiles),measurement,setting,value
NC(=O)CC(NC(=O)Cc1ccc(Cl)cc1)c1ccc(NCCCN2CCCC2=O)c([N+](=O)[O-])c1 (centres undefined),EC50,[1],2.2 µM (active)
COc1cc(NC(=O)c2ccc(COCC(F)(F)F)cc2)cc(OC)c1OC,AC50,Cytochrome P450 3A4,22.4 µM (inconclusive)
same,AC50,Cytochrome P450 2C19,28.2 µM (inconclusive)
same,AC50,Cytochrome P450 2D6,inconclusive
same,IC50,Ephrin type-A receptor 4,> 100 µM (not active)
CCN(CC)CCCNC(=O)CSc1c2c(nc3cc(Cl)ccc13)CCCC2,EC50,[2],> 79.4 µM (inactive)
same,EC50,[3],> 79.4 µM (not active)
same,EC50,[4],> 79.4 µM (not active)
same,EC50,[5],17.3 µM (active)
CC1(C)CC(CCNS(=O)(=O)c2ccccc2)(c2ccccc2)CCO1 (centres undefined),AC50,Escherichia coli [6],52.9 µM (active)
same,AC50,Escherichia coli [7],251 µM (active)
C=CCN1C=C2C(=O)C(C)(OC(=O)c3ccc(OC)cc3)C(=O)C(c3ccco3)=C2C=C1CCCC (centres undefined),AC50,Escherichia coli [6],22.3 µM (active)
Cc1c(Nc2ncnc3c2cnn3-c2ccccc2)c(=O)n(-c2ccccc2)n1C,AC50,Escherichia coli [7],51.5 µM (active)
COC(=O)c1c(-c2ccc(OC)cc2)oc2ccc(-c3ccc(OC)nc3)cc12,AC50,CAAX prenyl protease 2,1.15 µM (active)
same,AC50,Trypsin,5.18 µM (active)
O=C(Nc1ccc(F)cc1)c1ccc(CN2CCCCC2)cc1,IC50,Tumor necrosis factor,> 20 µM (inactive)
same,IC50,HEK293,> 20 µM (inactive)
Cc1ccc(SCc2noc(C(=O)NCC3CCCO3)c2C(=O)O)cc1C (centres undefined),AC50,Cytochrome P450 2D6,inconclusive
O=C1NC(=S)SC1=Cc1ccc(F)cc1,AC50,[8],622 nM (active)
O=[N+]([O-])c1cc(/C=N/Nc2cc(N3CCOCC3)nc(N3CCOCC3)n2)cc2c1OCO2,IC50,[9],> 99 µM (inactive)
same,IC50,[10],> 99 µM (inactive)
same,IC50,[11],> 99 µM (inactive)
same,IC50,Caspase-3,> 99 µM (inactive)
CC(C)OC(=O)c1c(-c2ccc(Br)cc2)csc1NC(=O)C1CCC1,IC50,[9],1.22 µM (active)
same,IC50,[10],1.58 µM (active)
same,IC50,[11],1.53 µM (active)
same,IC50,Caspase-3,1.98 µM (active)
CCn1cc(C(=O)O)c(=O)c2cnc(N3CCN(C(=S)Nc4ccccc4C(F)(F)F)CC3)nc21,IC50,Exodeoxyribonuclease V,> 39.5 µM (inactive)
same,IC50,[12],3.33 µM (active)
